From patent US20090182033A1, “Cyclic Amine Derivatives and Their Uses” (ARGENTA DISCOVERY LTD., priority 2005, published 2009)

Molecular target: T1, M3 muscarinic receptor (Homo sapiens, UniProt P20309)
T1 construct: purchased
Assay: Muscarinic receptor radioligand binding assay ([3H]-NMS)
Details: cell membranes expressing the human muscarinic receptors, 3 hours incubation, read-out: binding affinity Ki
Procedure: The inhibitory effects of compounds of the present invention at the M3 muscarinic receptor were determined by the following binding assays:
Radioligand binding studies utilising [^3H]-N-methyl scopolamine ([^3H]-NMS) and commercially available cell membranes expressing the human muscarinic receptors (M2 and M3) were used to assess the affinity of muscarinic antagonists for M2 and M3 receptors. Membranes in TRIS buffer were incubated in 96-well plates with [^3H]-NMS and M3 antagonist at various concentrations for 3 hours. Membranes and bound radioligand were then harvested by filtration and allowed to dry overnight. Scintillation fluid was then added and the bound radioligand counted using a Can berra Packard Topcount scintillation counter

T1 sequence (P20309 whole entry): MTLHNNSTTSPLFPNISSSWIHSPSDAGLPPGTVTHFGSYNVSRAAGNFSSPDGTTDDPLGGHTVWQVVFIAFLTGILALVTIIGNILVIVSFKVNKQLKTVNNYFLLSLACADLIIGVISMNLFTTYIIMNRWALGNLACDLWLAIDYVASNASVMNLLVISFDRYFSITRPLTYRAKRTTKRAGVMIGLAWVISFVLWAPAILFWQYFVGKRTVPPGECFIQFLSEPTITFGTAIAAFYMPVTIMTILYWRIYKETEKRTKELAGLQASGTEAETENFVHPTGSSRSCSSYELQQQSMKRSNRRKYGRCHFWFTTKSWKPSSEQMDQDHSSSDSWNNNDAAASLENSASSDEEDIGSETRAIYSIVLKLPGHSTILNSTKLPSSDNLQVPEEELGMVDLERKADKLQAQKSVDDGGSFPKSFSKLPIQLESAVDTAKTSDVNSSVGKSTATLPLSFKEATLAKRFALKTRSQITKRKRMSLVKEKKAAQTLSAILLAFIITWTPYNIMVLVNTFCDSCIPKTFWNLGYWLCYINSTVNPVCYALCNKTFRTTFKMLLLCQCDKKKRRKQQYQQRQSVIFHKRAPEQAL

C[N+](C)(CCCc1ccccc1)C1CC2CCC1C2OCc1ccccc1 [Example 6, Anti (1S, 2S) (7-benzyloxybi-cyclo[2.2.1]hept-2-yl)-dimethyl-(3-phenyl-propyl)-ammonium bromide]
Ki: < 100 nM
